# From the NIST ThermoML archive (doi:10.1016/j.jct.2005.08.005)
# ± gives the expanded uncertainty stated by the source.
# Assay: refractive index (other wavelength) (dimensionless); xn = mol fraction of the nth substance listed
# Settings: 101.3 kPa, Liquid, Wavelength=632.8 nm, Method described in references 3 and 4 of the article
smiles,measurement,setting,value
N#Cc1ccccc1 [benzonitrile] + CCCCCCCCCCCCCCCC,refractive index,"294.62 K, x1 = 1",1.5246 ± 0.0002
same,refractive index,"295.4 K, x1 = 0.0997",1.4353 ± 0.0002
same,refractive index,"296.2 K, x1 = 0.1982",1.4385 ± 0.0002
same,refractive index,"296.22 K, x1 = 0.3022",1.4432 ± 0.0002
same,refractive index,"296.49 K, x1 = 0.8855",1.499 ± 0.0002
same,refractive index,"296.97 K, x1 = 1",1.5235 ± 0.0002
same,refractive index,"297.19 K, x1 = 0.0997",1.4346 ± 0.0002
same,refractive index,"297.59 K, x1 = 0.1982",1.438 ± 0.0002
same,refractive index,"298.03 K, x1 = 0.3972",1.4472 ± 0.0002
same,refractive index,"298.19 K, x1 = 0.3022",1.4423 ± 0.0002
same,refractive index,"298.57 K, x1 = 0.8855",1.498 ± 0.0002
same,refractive index,"299.03 K, x1 = 0.0997",1.4338 ± 0.0002
same,refractive index,"299.08 K, x1 = 1",1.5224 ± 0.0002
same,refractive index,"299.56 K, x1 = 0.3972",1.4466 ± 0.0002
same,refractive index,"299.75 K, x1 = 0.3022",1.4416 ± 0.0002
same,refractive index,"299.78 K, x1 = 0.1982",1.437 ± 0.0002
same,refractive index,"300.77 K, x1 = 0.0997",1.433 ± 0.0002
same,refractive index,"301.05 K, x1 = 0.3022",1.441 ± 0.0002
same,refractive index,"301.05 K, x1 = 0.8855",1.4969 ± 0.0002
same,refractive index,"301.17 K, x1 = 0.1982",1.4365 ± 0.0002
same,refractive index,"301.26 K, x1 = 0.3972",1.4459 ± 0.0002
same,refractive index,"301.39 K, x1 = 1",1.5213 ± 0.0002
same,refractive index,"301.64 K, x1 = 0.1982",1.4362 ± 0.0003
same,refractive index,"302.7 K, x1 = 0.0997",1.4323 ± 0.0002
same,refractive index,"302.75 K, x1 = 0.3972",1.4452 ± 0.0002
same,refractive index,"302.86 K, x1 = 0.3022",1.4403 ± 0.0002
same,refractive index,"302.96 K, x1 = 0.4976",1.4519 ± 0.0003
same,refractive index,"303.42 K, x1 = 1",1.5203 ± 0.0002
same,refractive index,"303.45 K, x1 = 0.7947",1.481 ± 0.0003
same,refractive index,"303.59 K, x1 = 0.8855",1.4957 ± 0.0002
same,refractive index,"303.7 K, x1 = 0.4976",1.4515 ± 0.0002
same,refractive index,"303.82 K, x1 = 0.1982",1.4353 ± 0.0002
same,refractive index,"304.08 K, x1 = 0.0997",1.4317 ± 0.0002
same,refractive index,"304.21 K, x1 = 0.3972",1.4446 ± 0.0002
same,refractive index,"304.25 K, x1 = 0.3022",1.4397 ± 0.0002
same,refractive index,"304.25 K, x1 = 0.4976",1.4512 ± 0.0002
same,refractive index,"304.4 K, x1 = 0.7947",1.4806 ± 0.0002
same,refractive index,"304.69 K, x1 = 0.595",1.4585 ± 0.0003
same,refractive index,"304.73 K, x1 = 0.4976",1.451 ± 0.0002
same,refractive index,"305.22 K, x1 = 0.7947",1.4802 ± 0.0002
same,refractive index,"305.41 K, x1 = 0.3972",1.444 ± 0.0002
same,refractive index,"305.44 K, x1 = 0.6854",1.4668 ± 0.0003
same,refractive index,"305.47 K, x1 = 0.595",1.4582 ± 0.0002
same,refractive index,"305.66 K, x1 = 0.1982",1.4346 ± 0.0002
same,refractive index,"305.66 K, x1 = 0.4976",1.4507 ± 0.0002
same,refractive index,"305.86 K, x1 = 0.0997",1.4309 ± 0.0002
same,refractive index,"305.86 K, x1 = 0.3022",1.439 ± 0.0002
same,refractive index,"305.89 K, x1 = 0.7947",1.4799 ± 0.0002
same,refractive index,"305.92 K, x1 = 1",1.5191 ± 0.0002
same,refractive index,"305.98 K, x1 = 0.8855",1.4946 ± 0.0002
same,refractive index,"306.25 K, x1 = 0.6854",1.4665 ± 0.0002
same,refractive index,"306.37 K, x1 = 0.595",1.4578 ± 0.0002
same,refractive index,"306.66 K, x1 = 0.6854",1.4663 ± 0.0002
same,refractive index,"306.68 K, x1 = 0.7947",1.4795 ± 0.0002
same,refractive index,"307.36 K, x1 = 0.595",1.4574 ± 0.0002
same,refractive index,"307.66 K, x1 = 0.6854",1.4658 ± 0.0002
same,refractive index,"307.86 K, x1 = 0.8855",1.4937 ± 0.0002
same,refractive index,"308.18 K, x1 = 0.595",1.457 ± 0.0002
same,refractive index,"308.42 K, x1 = 0.6854",1.4655 ± 0.0002
